# Assay results from paper PMC10326142 (Cancer Chemotherapy and Pharmacology, 2023).
# “And” between values parts separate entries of the source, which are not always exact repeats. Equal values may be shown once. Read-outs that look alike come from different tables or passages of the source.
# How the values were obtained:
# [1] = Plasma pharmacokinetics of neratinib and trametinib co-administered, cycle 1 day 15 (LC/MS, noncompartmental); type: in vivo, human; conditions: for Tmax / Ctau or C24 (trough concentration) / Half-life: plasma; for Ctau or C24 (trough concentration): mean (range) in Table 4; for Oral CLss (oral clearance at steady state): mean (range) in Table 4, mean ± spread in text
# [2] = system: patients with solid tumors; parameters: method as in Wong et al 27; conditions: monotherapy 180mg, N=6; cell as count (percent), ref Wong et al 27; cited from earlier work
# [3] = system: P-glycoprotein (P-gp); parameters: method as in PMID 34664792; conditions: digoxin = P-gp substrate; cited from earlier work
# [4] = cited from earlier work
# [5] = system: patients; conditions: cited from earlier work
# [6] = co-administered at dose level minus 1 (160 mg neratinib daily with 1 mg trametinib 5 days on and 2 days off), cycle 1 day 15, 8 patients
# [7] = single agent trametinib 2 mg, 13 patients, mean (range), ref Infante et al. 32
# [8] = single agent trametinib 2.5 mg, 16 patients, mean (range), ref Infante et al. 32
# [9] = single agent trametinib 3 mg, 16 patients, mean (range), ref Infante et al. 32
# [10] = monotherapy 1mg, N=2, ref Infante et al 32
# [11] = monotherapy 2mg, N=70, cell as count (percent), ref Infante et al 32
structure (smiles),measurement,setting,value
CCOc1cc2ncc(C#N)c(Nc3ccc(OCc4ccccn4)c(Cl)c3)c2cc1NC(=O)/C=C/CN(C)C [neratinib],changes in neratinib PKs compared to existing single agent PK data (in words),"[1]; PK cohort, co-administered with trametinib",no observed changes
same,Tmax,"[1]; co-administered at dose level minus 1 (160 mg neratinib daily with 1 mg trametinib 5 days on and 2 days off), cycle 1 day 15, 8 patients, mean (range)",5.8 (3–8) h
same,Ctau or C24 (trough concentration),[1]; [6],43.99 (3.4–93) ng/mL
same,Oral CLss (oral clearance at steady state),[1]; [6],76.7 ± 16.9 L/h
same,Oral CLss (oral clearance at steady state),"[1]; co-administered at dose level minus 1 (160 mg neratinib daily with 1 mg trametinib 5 days on and 2 days off), cycle 1 day 15, 8 patients, listed as Neratinib",76.7 (56.5–93.5) L/h
same,AR (accumulation ratio),"[1]; co-administered at dose level minus 1 (160 mg neratinib daily with 1 mg trametinib 5 days on and 2 days off), day 15, 8 patients, mean (range)",1.67 (1.19–2.16)
same,Half-life,"[1]; human, oral",18 h
same,Tmax,"[1]; human, oral, read-out: Tmax",~6 h
same,Grade > 3 TRAE: Diarrhea,[2],1 (17)
same,Grade > 3 TRAE: Fatigue,[2],1 (17)
same,Grade > 3 TRAE: Nausea,[2],0
same,Grade > 3 TRAE: Rash,[2],0
same,Grade > 3 TRAE: Vomiting,[2],0
same,TRAE of all grades: Anorexia,[2],1 (17)
same,TRAE of all grades: Diarrhea,[2],6 (100)
same,TRAE of all grades: Fatigue,[2],4 (67)
same,TRAE of all grades: Nausea,[2],3 (50)
same,TRAE of all grades: Rash,[2],1 (17)
same,TRAE of all grades: Vomiting,[2],2 (33)
same,increase of digoxin AUC,[3],32%
same,increase of digoxin plasma concentrations (Cmax),[3],54%
CC(=O)Nc1cccc(-n2c(=O)n(C3CC3)c(=O)c3c(Nc4ccc(I)cc4F)n(C)c(=O)c(C)c32)c1 [trametinib],Ctau or C24 (trough concentration),[1]; [6],27.8 (8.5–42.2) ng/mL
same,Oral CLss (oral clearance at steady state),[1]; [6],1.55 ± 0.63 L/h and 1.55 L/h
same,Oral CLss (oral clearance at steady state),"[1]; co-administered at dose level minus 1 (160 mg neratinib daily with 1 mg trametinib 5 days on and 2 days off), cycle 1 day 15, 8 patients, listed as Trametinib",1.55 (0.95–2.4) L/h
same,Half-life,"[1]; human, oral",52 h
same,Tmax,"[1]; human, oral, read-out: Tmax",5.6 h
same,trametinib clearance when co-administered with neratinib (in words),[1]; vs published single agent data,significantly reduced
same,oral clearance,[4]; published single agent data,3.81 L/h
same,Cmax,[4]; [7],22.2 (14–32·9) ng/mL
same,Ctau or C24,[4]; [7],12.1 (8.26–16.9) ng/mL
same,Half-life,[4]; [7],57.6 (4·01–210) h
same,AUC0-24,[4]; [8],410 (215–865) ng*h/mL
same,Ctau or C24,[4]; [8],15.1 (6.86–40.5) ng/mL
same,Half-life,[4]; [8],90.2 (58.4–183) h
same,AUC0-24,[4]; [9],540 (261–968) ng*h/mL
same,Cmax,[4]; [9],33.4 (15.6–60.9) ng/mL
same,Ctau or C24,[4]; [9],17.9 (7.77–35.5) ng/mL
same,Half-life,[4]; [9],86.1 (15.1–291) h
same,Tmax,[4]; [9],2.05 (0.5–10.0) h
same,Grade > 3 TRAE: Fatigue,[5]; [10],0
same,Grade > 3 TRAE: Nausea,[5]; [10],0
same,TRAE of all grades: Mucositis,[5]; [11],3 (4)
same,TRAE of all grades: Nausea,[5]; [11],18 (26)
same,TRAE of all grades: Vomiting,[5]; [11],9 (13)
